Counter-ions that a name gives are not always drawn.
These compounds were tested against T1, heparanase (Homo sapiens, UniProt Q9Y251) (assay: AGA*IA assay: heparanase-catalyzed fondaparinux cleavage, colorimetric (WST-1)). Details: Table 1; range activity classes, AGA*IA test on Fondaparinux; read-out: AGAIA assay IC50.
T1 sequence (Q9Y251 158-543 limits assumed): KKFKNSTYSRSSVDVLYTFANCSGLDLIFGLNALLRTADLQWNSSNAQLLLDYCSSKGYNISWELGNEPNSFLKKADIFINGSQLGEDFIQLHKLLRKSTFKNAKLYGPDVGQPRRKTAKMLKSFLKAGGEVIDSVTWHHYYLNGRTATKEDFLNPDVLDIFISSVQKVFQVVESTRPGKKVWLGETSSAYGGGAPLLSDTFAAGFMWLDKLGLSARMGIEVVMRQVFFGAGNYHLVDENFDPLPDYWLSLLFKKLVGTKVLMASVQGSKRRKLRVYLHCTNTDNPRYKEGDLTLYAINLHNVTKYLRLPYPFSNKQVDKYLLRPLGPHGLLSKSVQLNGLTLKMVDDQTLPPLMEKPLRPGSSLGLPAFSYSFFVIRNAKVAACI
T1 sequence (Q9Y251 36-109 limits assumed): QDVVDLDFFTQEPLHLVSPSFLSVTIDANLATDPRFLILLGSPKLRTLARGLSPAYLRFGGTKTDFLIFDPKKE
Assay type: biochemical
Description: All compounds were tested in a simple, accurate and robust microplate assay based on the cleavage of the synthetic heparin fragment, the pentasaccharide Fondaparinux (AGA*IA). This assay was originally developed by Hammond and coworkers (Hammond E, Li CP, Ferro V. Development of a colorimetric assay for heparanase activity suitable for kinetic analysis and inhibitor screening. Anal. Biochem. 396(1), 112-116 (2010)), where Fondaparinux corresponds to the methyl glycoside of the antithrombin III (ATIII)-activating pentasaccharide sequence of heparin. Fondaparinux is cleaved by heparanase to generate a reducing disaccharide, which can be quantitatively measured via a colorimetric or a fluorescence assay, the last by the fluorescent sensor polymer-H [Schiemann S, Lühn S, Alban S. Development of both colorimetric and fluorescence heparinase activity assays using fondaparinux as substrate. Anal. Biochem. 427(1), 82-89 (2012)].
The assay measures the appearance of the disaccharide product of heparanase-catalyzed fondaparinux cleavage colorimetrically using the tetrazolium salt WST-1. Assay was essentially performed as described with minor modifications. Briefly, NUNC ELISA 96-well plates were pre-treated with a solution of 4% BSA (bovin serum albumin) in phosphate-buffered saline containing 0.05% Tween 20 (PBST), for 2 h at 37°C, then washed three times with PBST, dried by tapping on paper towel and stored at -20°C. Before use, once again, the plates were washed with PBST.
Assay was carried out with 100 µl/well of assay solution containing 40 mM sodium acetate buffer (pH 5.0), 100 µM fondaparinux, 2.5 nM heparanase and serial dilutions of test compounds (tested in triplicate). Plates were sealed with adhesive tape and incubated, in the dark, for 3 h at 37°C, followed by development with 1.69 mM of the tetrazolium salt WST-1 solution in 0.1 M NaOH, for 1 h at 60°C. Then, the absorbance at 560 nm was measured through a microplate reader (Victor 3, Perkin Elmer).
Finally, the measurements were corrected by subtracting both the reagent background and the inner absorbance value of test compound.
`CC(C)CC(NC(=O)Cc1cccc(NC(=O)c2cc(NC(=O)c3cccc(NC(=O)Nc4cccc(C(=O)Nc5cc(C(=O)Nc6cccc(CC(=O)NC(CC(C)C)C(=O)O)c6)n(C)c5)c4)c3)cn2C)c1)C(=O)O` (stereo not drawn) [Compound 12a, 2,2'-{carbonylbis[imino-3,1-phenylenecarbonylimino(1-methyl-1H-pyrrole-4,2-diyl)carbonylimino-3,1-phenylene(1-oxoethane-2,1-diyl)imino]}bis(4-methylpentanoic acid)] gave an IC50 of 1 to 20 µM. `Cn1cc(NC(=O)c2cccc(NC(=O)Nc3cccc(C(=O)Nc4cc(C(=O)Nc5cccc(CC(=O)N[C@@H](CCCCN)C(=O)O)c5)n(C)c4)c3)c2)cc1C(=O)Nc1cccc(CC(=O)N[C@@H](CCCCN)C(=O)O)c1` [Compound 12c, 5,5'-{carbonylbis[imino-3,1-phenylenecarbonylimino(1-methyl-1H-pyrrole-4,2-diyl)carbonylimino-3,1-phenylene(1-oxoethane-2,1-diyl)imino]}bis(1-aminium-6-hexanoic acid) trifluoroacetate salt] gave an IC50 of 1 to 20 µM. Work on `CC(NC(=O)Cc1cccc(NC(=O)c2cc(NC(=O)c3cccc(NC(=O)Nc4cccc(C(=O)Nc5cc(C(=O)Nc6cccc(CC(=O)NC(C)C(=O)O)c6)n(C)c5)c4)c3)cn2C)c1)C(=O)O` (stereo not drawn) [Compound 12d, 2,2'-{carbonylbis[imino-3,1-phenylenecarbonylimino(1-methyl-1H-pyrrole-4,2-diyl)carbonylimino-3,1-phenylene(1-oxoethane-2,1-diyl)imino]}dipropanoic acid] yielded an IC50 of 1 to 20 µM. `Cn1cc(NC(=O)c2cccc(NC(=O)Nc3cccc(C(=O)Nc4cc(C(=O)Nc5cccc(CC(=O)N[C@@H](CCC(=O)O)C(=O)O)c5)n(C)c4)c3)c2)cc1C(=O)Nc1cccc(CC(=O)N[C@@H](CCC(=O)O)C(=O)O)c1` [Compound 12f, 2,2'-{carbonylbis[imino-3,1-phenylenecarbonylimino(1-methyl-1H-pyrrole-4,2-diyl)carbonylimino-3,1-phenylene(1-oxoethane-2,1-diyl)imino]}dipentandioic acid] gave an IC50 of 1 to 20 µM. Compound `Cn1cc(NC(=O)c2cccc(NC(=O)Nc3cccc(C(=O)Nc4cc(C(=O)Nc5cccc(CC(=O)O)c5)n(C)c4)c3)c2)cc1C(=O)Nc1cccc(CC(=O)O)c1` [Compound 12h, 2,2'-(((4,4'-((3,3'-(Carbonylbis(azanediyl))bis(benzoyl))bis(azanediyl))bis(1-methyl-1H-pyrrole-4,2-diyl-2-carbonyl))bis(azanediyl))bis(3,1-phenylene))diacetic acid] has an IC50 of 1 to 20 µM. In the case of `Cn1cc(NC(=O)c2cccc(NC(=O)Nc3cccc(C(=O)Nc4cc(C(=O)Nc5ccc(CC(=O)O)cc5)n(C)c4)c3)c2)cc1C(=O)Nc1ccc(CC(=O)O)cc1` [Compound 12j, 2,2'-(((4,4'-((3,3'-(carbonylbis(azanediyl))bis(benzoyl))bis(azanediyl))bis(1-methyl-1H-pyrrole-2,2'-carbonyl))bis(azanediyl))bis(4,1-phenylene))diacetic acid], the IC50 is reported as 1 to 20 µM. `Cn1cc(NC(=O)c2cccc(NC(=O)Nc3cccc(C(=O)Nc4cc(C(=O)Nc5cccc(CC(=O)NCC(=O)NCC(=O)O)c5)n(C)c4)c3)c2)cc1C(=O)Nc1cccc(CC(=O)NCC(=O)NCC(=O)O)c1` [Compound 13b, Disodium 2,2'-{carbonylbis[imino-3,1-phenylenecarbonylimino(1-methyl-1H-pyrrole-4,2-diyl)carbonylimino-3,1-phenylene(1-oxoethane-2,1-diyl)imino(1-oxoethane-2,1-diyl)imino]}diethanoate salt] was tested, and the IC50 was 1 to 20 µM. `CC(C)CC(NC(=O)Cc1cccc(NC(=O)c2cc(NC(=O)c3cc(NC(=O)Nc4cc(C(=O)Nc5cc(C(=O)Nc6cccc(CC(=O)NC(CC(C)C)C(=O)O)c6)n(C)c5)n(C)c4)cn3C)cn2C)c1)C(=O)O` (stereo not drawn) [Compound 17a, 2,2'-{carbonylbis[imino(1-methyl-1H-pyrrole-4,2-diyl)carbonylimino(1-methyl-1H-pyrrole-4,2-diyl)carbonylimino-3,1-phenylene(1-oxoethane-2,1-diyl)imino]}bis(4-methylpentanoic acid)] showed an IC50 of 1 to 20 µM. `C[C@H](NC(=O)Cc1cccc(NC(=O)c2cc(NC(=O)c3cc(NC(=O)Nc4cc(C(=O)Nc5cc(C(=O)Nc6cccc(CC(=O)N[C@@H](C)C(=O)O)c6)n(C)c5)n(C)c4)cn3C)cn2C)c1)C(=O)O` [Compound 17d, 2,2'-{carbonylbis[imino(1-methyl-1H-pyrrole-4,2-diyl)carbonylimino(1-methyl-1H-pyrrole-4,2-diyl)carbonylimino-3,1-phenylene(1-oxoethane-2,1-diyl)imino]}dipropanoic acid] showed an IC50 of 1 to 20 µM. Work on `Cn1cc(NC(=O)Nc2cc(C(=O)Nc3cc(C(=O)Nc4cccc(CC(=O)N[C@@H](CCC(=O)O)C(=O)O)c4)n(C)c3)n(C)c2)cc1C(=O)Nc1cc(C(=O)Nc2cccc(CC(=O)N[C@@H](CCC(=O)O)C(=O)O)c2)n(C)c1` [Compound 17f, 2,2'-{carbonylbis[imino-3,1-phenylenecarbonylimino(1-methyl-1H-pyrrole-4,2-diyl)carbonylimino-3,1-phenylene(1-oxoethane-2,1-diyl)imino]}dipentandioic acid] yielded an IC50 of 1 to 20 µM. Work on `Cn1cc(NC(=O)Nc2cc(C(=O)Nc3cc(C(=O)Nc4cccc(CC(=O)N[C@@H](CCCCN)C(=O)O)c4)n(C)c3)n(C)c2)cc1C(=O)Nc1cc(C(=O)Nc2cccc(CC(=O)N[C@@H](CCCCN)C(=O)O)c2)n(C)c1` [Compound 35c, (2S,2'S)-2,2'-((2,2'-(((4,4'-((4,4'-(carbonylbis(azanediyl))bis(1-methyl-1H-pyrrole-4,2-diyl-2-carbonyl))bis(azanediyl))bis(1-methyl-1H-pyrrole-4,2-diyl-2-carbonyl))bis(azanediyl))bis(3,1-phenylene))bis(acetyl))bis(azanediyl))bis(6-aminohexanoic acid) dihydrochloride] yielded an IC50 of 1 to 20 µM. Compound `CC(C)C[C@H](NC(=O)Cc1cccc(NC(=O)c2cc(NC(=O)c3ccc(Oc4ccc(C(=O)Nc5cc(C(=O)Nc6cccc(CC(=O)N[C@@H](CC(C)C)C(=O)O)c6)n(C)c5)cc4)cc3)cn2C)c1)C(=O)O` [Compound 36a, (2S,2'S)-2,2'-((2,2'-(((4,4'-((4,4'-Oxybis(benzoyl))bis(azanediyl))bis(1-methyl-1H-pyrrole-2,2'-carbonyl))bis(azanediyl))bis(3,1-phenylene))bis(acetyl))bis(azanediyl))bis(4-methylpentanoic acid)] has an IC50 of 1 to 20 µM. Work on `Cn1cc(NC(=O)c2ccc(Oc3ccc(C(=O)Nc4cc(C(=O)Nc5cccc(CC(=O)NCC(=O)O)c5)n(C)c4)cc3)cc2)cc1C(=O)Nc1cccc(CC(=O)NCC(=O)O)c1` [Compound 36b, 2,2'-((2,2'-(((4,4'-((4,4'-Oxybis(benzoyl))bis(azanediyl))bis(1-methyl-1H-pyrrole-2,2'-carbonyl))bis(azanediyl))bis(3,1-phenylene))bis(acetyl))bis(azanediyl))diacetic acid] yielded an IC50 of 1 to 20 µM. `Cn1cc(NC(=O)c2ccc(Oc3ccc(C(=O)Nc4cc(C(=O)Nc5cccc(CC(=O)N[C@@H](CCCCN)C(=O)O)c5)n(C)c4)cc3)cc2)cc1C(=O)Nc1cccc(CC(=O)N[C@@H](CCCCN)C(=O)O)c1` [Compound 36c, (2S,2'S)-2,2'-((2,2'-(((4,4'-((4,4'-oxybis(benzoyl))bis(azanediyl))bis(1-methyl-1H-pyrrole-4,2-diyl-2-carbonyl))bis(azanediyl))bis(3,1-phenylene))bis(acetyl))bis(azanediyl))bis(6-aminohexanoic acid) dihydrochloride] showed an IC50 of 1 to 20 µM. With `C[C@H](NC(=O)Cc1cccc(NC(=O)c2cc(NC(=O)c3ccc(Oc4ccc(C(=O)Nc5cc(C(=O)Nc6cccc(CC(=O)N[C@@H](C)C(=O)O)c6)n(C)c5)cc4)cc3)cn2C)c1)C(=O)O` [Compound 36d, (2S,2'S)-2,2'-((2,2'-(((4,4'-((4,4'-Oxybis(benzoyl))bis(azanediyl))bis(1-methyl-1H-pyrrole-2,2'-carbonyl))bis(azanediyl))bis(3,1-phenylene))bis(acetyl))bis(azanediyl))dipropanoic acid] the IC50 was 1 to 20 µM.
